The source of these data is publication PMC11870037 (Molecules, 2024).

Data set [1] has as its target T1, Serotonin 5-HT2A receptor (Rattus norvegicus, UniProt P14842).
T1 construct: The cerebral cortex of a rat was finely homogenized using an ULTRA TURAX; from tissue; host or cells: rat cerebral cortex membranes
Nature of the data set: Serotonin 5-HT2A receptor binding ([3H]ketanserin). As to conditions: rat brain cortex.

A further data set has as its target Dopamine D1 receptor (Rattus norvegicus, UniProt P18901). Nature of the data set: Dopamine D1 receptor binding ([3H]-SCH23390). As to conditions: rat striatum.
The next data set addresses T2, Dopamine D3 receptor (Rattus norvegicus, UniProt P19020).
T2 construct: A rat olfactory tubercle was homogenized in 20 volumes of ice; from tissue; host or cells: rat olfactory tubercle membranes
As to the kind of experiment: Dopamine D3 receptor binding ([3H]7-OH-DPAT). Conditions: rat olfactory tubercle.

For another data set, the target named is T3, Histamine H4 receptor (Homo sapiens, UniProt Q9H3N8).
T3 construct: expressed in transfected cells; host or cells: Sf9 membranes
As to the kind of experiment: Histamine H4 receptor binding ([3H]Na-Methylhistamine, Sf9 membranes). Conditions: Sf9 cells and membrane.

The target in the next data set is T4, hERG potassium channel (Homo sapiens, UniProt Q12809).
T4 construct: expressed in transfected cells; host or cells: HEK 293
T4 sequence (Q12809 whole entry): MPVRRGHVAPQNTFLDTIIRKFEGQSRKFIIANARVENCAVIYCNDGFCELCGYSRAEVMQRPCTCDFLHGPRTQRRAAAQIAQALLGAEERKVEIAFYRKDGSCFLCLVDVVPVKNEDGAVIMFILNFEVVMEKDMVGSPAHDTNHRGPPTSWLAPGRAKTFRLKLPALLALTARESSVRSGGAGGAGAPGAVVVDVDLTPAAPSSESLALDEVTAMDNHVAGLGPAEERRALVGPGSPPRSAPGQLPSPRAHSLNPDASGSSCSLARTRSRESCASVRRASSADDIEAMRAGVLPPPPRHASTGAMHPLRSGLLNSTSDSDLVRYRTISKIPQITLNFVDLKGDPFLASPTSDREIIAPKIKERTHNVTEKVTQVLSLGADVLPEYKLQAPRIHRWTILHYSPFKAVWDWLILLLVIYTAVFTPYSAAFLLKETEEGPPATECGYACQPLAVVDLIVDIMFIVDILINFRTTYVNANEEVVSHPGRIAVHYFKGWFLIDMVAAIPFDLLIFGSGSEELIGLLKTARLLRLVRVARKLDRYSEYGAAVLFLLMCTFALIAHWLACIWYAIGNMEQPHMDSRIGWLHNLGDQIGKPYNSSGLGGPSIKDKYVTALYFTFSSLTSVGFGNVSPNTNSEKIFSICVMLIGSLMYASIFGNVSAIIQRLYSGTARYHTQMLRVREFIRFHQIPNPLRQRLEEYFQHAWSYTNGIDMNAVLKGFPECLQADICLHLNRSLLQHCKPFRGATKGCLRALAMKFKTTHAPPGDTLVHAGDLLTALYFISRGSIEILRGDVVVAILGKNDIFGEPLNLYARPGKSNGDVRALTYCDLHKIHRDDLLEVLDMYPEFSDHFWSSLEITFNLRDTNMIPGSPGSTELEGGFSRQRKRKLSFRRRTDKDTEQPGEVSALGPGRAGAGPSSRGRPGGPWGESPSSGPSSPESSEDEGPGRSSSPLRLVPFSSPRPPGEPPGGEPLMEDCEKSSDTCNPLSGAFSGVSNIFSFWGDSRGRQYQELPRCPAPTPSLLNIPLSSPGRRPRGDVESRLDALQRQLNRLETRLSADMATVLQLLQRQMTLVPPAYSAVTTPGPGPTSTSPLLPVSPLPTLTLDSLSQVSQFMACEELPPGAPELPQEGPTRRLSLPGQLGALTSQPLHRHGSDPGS
As to the kind of experiment: hERG whole-cell patch clamp in HEK 293 cells. The format is cell-based. A general note: hERG is a cardiac potassium channel; its block is linked to QT prolongation.

Data set [2] has as its target T5, M4 muscarinic cholinergic receptor (Homo sapiens, UniProt P08173).
T5 construct: blood lymphocytes were used at a concentration of 1 × 10⁶ cells; endogenous in cells; host or cells: peripheral blood lymphocytes
Nature of the data set: Muscarinic M4 receptor binding (lymphocyte suspension). Conditions: lymphocyte suspension and sections.

In the next data set the target is Dopamine D2 receptor (Rattus norvegicus, UniProt P61169). Nature of the data set: Dopamine D2 receptor binding ([3H]spiperone). Conditions: rat striatum.
Sequence of Dopamine D2 receptor (P61169 1-415 isoform P61169-2): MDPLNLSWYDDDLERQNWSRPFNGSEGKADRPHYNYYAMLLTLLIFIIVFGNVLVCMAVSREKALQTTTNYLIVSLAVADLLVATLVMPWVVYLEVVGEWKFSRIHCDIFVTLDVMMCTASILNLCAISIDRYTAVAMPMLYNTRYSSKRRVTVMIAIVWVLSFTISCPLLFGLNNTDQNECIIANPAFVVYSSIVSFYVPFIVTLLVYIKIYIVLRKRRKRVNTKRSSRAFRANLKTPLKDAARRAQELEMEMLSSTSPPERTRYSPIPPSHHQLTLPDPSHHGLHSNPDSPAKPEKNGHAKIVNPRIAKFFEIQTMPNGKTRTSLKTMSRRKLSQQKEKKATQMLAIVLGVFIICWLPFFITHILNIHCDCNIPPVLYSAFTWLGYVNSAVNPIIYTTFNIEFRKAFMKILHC
Data set [3] in a line: Acute toxicity, up-and-down procedure. Conditions: female, rat, in vivo; females, F344 rats, oral. As for the experimental part:
The hERG potassium channel blocking potential was evaluated using the whole-cell patch clamp method with hERG channels expressed in HEK 293 cells as the biological material. The Axopatch 200B amplifier and Digidata 1440A converter from Molecular Devices were integral to the setup. Electrodes crafted from borosilicate glass with filament by Sutter Instrument Company were used for recordings.
Command pulse protocols for voltage clamping and data acquisition were managed by pCLAMP […]
The bath solution contained 137 mM NaCl, 5.4 mM KCl, 10 mM glucose, 10 mM HEPES, and 2 mM CaCl2, with pH adjusted to 7.5 by NaOH. The pipet solution was composed of 140 mM KCl, 1 mM MgCl2, 5 mM EGTA, 10 mM HEPES, and 5 mM Na2ATP, with pH adjusted to 7.2 using KOH. The compound 11b was dissolved in a 50% (w/v) DMSO solution at an initial concentration of 1 mM and diluted to the test concentration with the bath solution. […]
number of surviving animals was recorded after 24 h of drug administration, and the percent mortality in each group was calculated. The LD50 values were calculated by using the soft AOT425statpgm […]
group containing 16 mice. […] The duration of immobility during the last 4 minutes of a total time of 6 minutes was recorded, and animals were judged to be immobile when they floated motionless, making only necessary movements to keep their heads above the water. […]

Data set [4] has as its target T6, M3 muscarinic cholinergic receptor (Homo sapiens, UniProt P20309).
T6 construct: blood lymphocytes were used at a concentration of 1 × 10⁶ cells; endogenous in cells; host or cells: peripheral blood lymphocytes
Nature of the data set: Muscarinic M3 receptor binding (lymphocyte suspension). Conditions: lymphocyte suspension and sections. As for the experimental part:
Antagonist potency was determined according to literature, by measuring inhibition of RAMH-induced [35S]GTPγS binding in recombinant hH3R membranes as previously. The […]
Inverse agonist potency was conducted by measuring inhibition of basal [35S]GTPγS binding in recombinant hH3 Rmembranes. Test compound or vehicle was added to the wells, followed by [35S]GTPγS to a final concentration of 0.2 nM. Nonspecific binding was determined in the presence of 10 μM unlabeled GTPγS. The control agonist signal was determined in wells containing vehicle in place of the test compound, and the basal signal was determined in wells containing vehicle in place of both diluted compound and the RAMH […]
3. Selectivity of Compound 11b for Additional Receptors […]
transporter, 3[H]-WIN35,428, rat striatum; (2) Dopamine D1 receptor, 3[H]-SCH23390, rat striatum; (3) Dopamine D2 receptor, [3H]spiperone, rat striatum; (4) Dopamine D3 receptor, [3H] 7-OH-DPAT, rat olfactory tubercle; (5) Serotonin 5-HT2A receptor, [3H]Ketanserin, rat brain cortex;
(6) Serotonin 5-HT2C receptor, [3H]mesulergine, rat brain cortex; (7) Adrenergic α2 receptor, [3H]- rauwolscine, rat cerebral cortex; (8) Histamine H2 receptor, [3H]tiotidine, Sf9 cells and […]

Another data set concerns the target NET (Rattus norvegicus, UniProt Q63380). As to the kind of experiment: biochemical. Conditions: Receptor Affinity Ki ± SEM NET, rat hippocampal membrane, [3H]nisoxetine; means ± SEM of three experiments.
Data set [5] concerns the target T7, SERT (Rattus norvegicus, UniProt P31652).
T7 construct: [3H]-paroxetine, rat cerebral cortex; from tissue; host or cells: rat cerebral cortex (membranes / crude synaptosomes)
As to the kind of experiment: Monoamine uptake transporter assay, [3H]5-HT uptake by SERT. The format is biochemical.

The next data set concerns the target T8, σ2 receptor (Cavia porcellus, UniProt H0V073).
T8 construct: from tissue; host or cells: guinea pig brain membranes
As to the kind of experiment: σ2 receptor binding ([3H]-DTG). Conditions: guinea pig brain membrane.

Data set [6] deals with T7, SERT. As to the kind of experiment: biochemical. In kind it is binding.
Another data set has as its target Histamine H2 receptor (Homo sapiens, UniProt P25021). Nature of the data set: Histamine H2 receptor binding ([3H]tiotidine, Sf9 membranes). Conditions: Sf9 cells and membrane.

A value given as a limit tells only on which side of the number the result lay.

T7 sequence (P31652 whole entry): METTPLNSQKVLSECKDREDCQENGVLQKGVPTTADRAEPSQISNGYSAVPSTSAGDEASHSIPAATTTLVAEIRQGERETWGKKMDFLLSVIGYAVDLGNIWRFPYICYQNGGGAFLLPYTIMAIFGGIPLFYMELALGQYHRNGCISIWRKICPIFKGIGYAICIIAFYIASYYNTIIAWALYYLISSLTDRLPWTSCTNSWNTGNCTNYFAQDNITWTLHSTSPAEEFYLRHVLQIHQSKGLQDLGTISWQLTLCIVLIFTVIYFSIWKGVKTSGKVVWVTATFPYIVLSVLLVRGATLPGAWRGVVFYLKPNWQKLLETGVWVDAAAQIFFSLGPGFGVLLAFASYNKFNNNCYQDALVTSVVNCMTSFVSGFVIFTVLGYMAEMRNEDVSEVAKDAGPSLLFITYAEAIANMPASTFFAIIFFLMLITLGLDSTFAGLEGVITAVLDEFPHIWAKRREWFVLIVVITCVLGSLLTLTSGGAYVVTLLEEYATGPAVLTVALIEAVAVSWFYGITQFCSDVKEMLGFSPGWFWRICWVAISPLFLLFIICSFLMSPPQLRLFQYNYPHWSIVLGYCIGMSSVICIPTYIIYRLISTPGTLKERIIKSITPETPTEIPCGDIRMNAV
T6 sequence (P20309 whole entry): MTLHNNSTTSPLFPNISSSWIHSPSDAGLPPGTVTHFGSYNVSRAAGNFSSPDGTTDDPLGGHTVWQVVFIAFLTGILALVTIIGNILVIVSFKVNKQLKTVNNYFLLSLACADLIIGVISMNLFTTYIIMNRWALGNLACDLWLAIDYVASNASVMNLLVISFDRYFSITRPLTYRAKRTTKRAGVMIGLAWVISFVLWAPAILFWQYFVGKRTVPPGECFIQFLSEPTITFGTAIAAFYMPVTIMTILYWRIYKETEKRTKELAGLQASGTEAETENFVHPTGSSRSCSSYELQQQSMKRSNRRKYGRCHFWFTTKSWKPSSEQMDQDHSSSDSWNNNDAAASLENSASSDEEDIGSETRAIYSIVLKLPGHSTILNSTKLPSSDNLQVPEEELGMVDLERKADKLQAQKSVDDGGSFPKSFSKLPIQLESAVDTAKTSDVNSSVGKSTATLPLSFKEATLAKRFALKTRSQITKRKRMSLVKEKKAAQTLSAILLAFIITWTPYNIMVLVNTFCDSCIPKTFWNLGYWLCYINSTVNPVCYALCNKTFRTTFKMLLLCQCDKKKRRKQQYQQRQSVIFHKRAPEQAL
Sequence of Dopamine D1 receptor (P18901 whole entry): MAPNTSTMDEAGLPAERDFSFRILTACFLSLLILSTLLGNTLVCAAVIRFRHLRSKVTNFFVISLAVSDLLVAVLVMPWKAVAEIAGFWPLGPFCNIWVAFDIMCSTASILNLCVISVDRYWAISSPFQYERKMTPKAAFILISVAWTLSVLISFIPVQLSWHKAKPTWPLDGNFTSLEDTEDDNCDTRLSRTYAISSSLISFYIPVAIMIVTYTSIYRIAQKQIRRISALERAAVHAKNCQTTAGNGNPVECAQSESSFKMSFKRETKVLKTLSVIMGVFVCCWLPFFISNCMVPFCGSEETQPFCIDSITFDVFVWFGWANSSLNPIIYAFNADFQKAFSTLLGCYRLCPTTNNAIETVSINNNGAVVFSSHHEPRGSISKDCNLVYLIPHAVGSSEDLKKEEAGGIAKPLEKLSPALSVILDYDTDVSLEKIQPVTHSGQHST
Sequence of Histamine H2 receptor (P25021 whole entry): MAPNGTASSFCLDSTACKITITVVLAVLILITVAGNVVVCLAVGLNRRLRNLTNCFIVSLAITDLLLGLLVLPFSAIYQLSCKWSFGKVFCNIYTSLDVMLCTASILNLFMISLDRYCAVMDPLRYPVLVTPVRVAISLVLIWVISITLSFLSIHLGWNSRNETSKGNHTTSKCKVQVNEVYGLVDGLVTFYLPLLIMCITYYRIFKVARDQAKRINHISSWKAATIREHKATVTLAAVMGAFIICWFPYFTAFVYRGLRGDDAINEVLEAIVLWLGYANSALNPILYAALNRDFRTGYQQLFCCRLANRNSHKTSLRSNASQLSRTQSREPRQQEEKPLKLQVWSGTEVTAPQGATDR
T5 sequence (P08173 whole entry): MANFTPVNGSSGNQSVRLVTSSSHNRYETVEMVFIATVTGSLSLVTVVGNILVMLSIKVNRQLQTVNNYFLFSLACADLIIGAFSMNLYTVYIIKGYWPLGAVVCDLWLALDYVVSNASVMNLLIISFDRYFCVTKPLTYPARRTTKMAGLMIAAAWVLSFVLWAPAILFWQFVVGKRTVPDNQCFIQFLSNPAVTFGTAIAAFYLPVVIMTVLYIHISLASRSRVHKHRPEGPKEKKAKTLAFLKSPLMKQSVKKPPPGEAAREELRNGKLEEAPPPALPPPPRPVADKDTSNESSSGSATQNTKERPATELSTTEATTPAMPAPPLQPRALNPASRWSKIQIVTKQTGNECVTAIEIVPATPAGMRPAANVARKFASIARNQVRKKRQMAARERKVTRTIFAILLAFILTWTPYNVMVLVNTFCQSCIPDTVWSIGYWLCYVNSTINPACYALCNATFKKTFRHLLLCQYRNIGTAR
T1 sequence (P14842 whole entry): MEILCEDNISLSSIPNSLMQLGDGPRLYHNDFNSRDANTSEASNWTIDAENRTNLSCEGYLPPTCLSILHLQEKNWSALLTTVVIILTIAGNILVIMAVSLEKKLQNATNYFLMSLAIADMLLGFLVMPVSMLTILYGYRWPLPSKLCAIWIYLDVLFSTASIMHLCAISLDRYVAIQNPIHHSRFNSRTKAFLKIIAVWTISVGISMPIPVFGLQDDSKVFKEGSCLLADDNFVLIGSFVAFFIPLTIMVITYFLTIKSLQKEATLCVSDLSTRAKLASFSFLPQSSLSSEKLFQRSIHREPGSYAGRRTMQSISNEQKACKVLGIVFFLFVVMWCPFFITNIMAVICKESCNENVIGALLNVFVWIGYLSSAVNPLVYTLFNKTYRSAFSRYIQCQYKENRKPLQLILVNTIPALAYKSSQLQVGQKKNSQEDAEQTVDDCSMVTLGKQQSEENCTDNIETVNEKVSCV
T2 sequence (P19020 whole entry): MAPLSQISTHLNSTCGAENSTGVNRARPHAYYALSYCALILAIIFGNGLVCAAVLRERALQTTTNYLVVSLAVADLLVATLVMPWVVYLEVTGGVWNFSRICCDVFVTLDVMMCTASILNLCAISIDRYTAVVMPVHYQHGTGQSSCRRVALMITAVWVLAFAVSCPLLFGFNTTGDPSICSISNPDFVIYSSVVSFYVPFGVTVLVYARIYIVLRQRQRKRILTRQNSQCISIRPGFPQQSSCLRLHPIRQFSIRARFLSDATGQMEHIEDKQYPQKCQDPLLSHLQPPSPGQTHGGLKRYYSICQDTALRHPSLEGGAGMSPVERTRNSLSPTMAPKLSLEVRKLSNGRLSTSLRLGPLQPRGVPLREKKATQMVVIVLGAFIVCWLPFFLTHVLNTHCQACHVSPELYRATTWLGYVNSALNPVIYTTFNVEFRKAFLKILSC

For the compound `CN(C)CCC(Oc1cccc2c1OCO2)c1ccc(OCCCN2CCCCC2)cc1.O=C(O)C(=O)O` (centres unmarked) [Compound 11b, 3-(benzo[d][1,3]dioxol-4-yloxy)-N,N-dimethyl-3-(4-(3-(piperidin-1-yl)propoxy)phenyl)propan-1-amine oxalate], the Ki (commonly a measure of affinity in units of concentration, obtained from inhibition or displacement) in data set [1] was 320 nM; on Dopamine D1 receptor it was more than 1000 nM; on Dopamine D3 receptor, more than 1000 nM; at Histamine H4 receptor, more than 1000 nM; in data set [2] it was more than 1000 nM; on Dopamine D2 receptor, more than 1000 nM. Moreover, the Ki in data set [4] was more than 1000 nM; on NET it was 10.5 ± 1.2 nM; at σ2 receptor, more than 1000 nM; at SERT [6] (rat cerebral cortex, [3H]-paroxetine, means ± SEM of three experiments, read-out: Receptor Affinity Ki ± SEM SERT) it was 7.8 ± 0.9 nM; on Histamine H2 receptor, more than 1000 nM. Further, the IC50 (as a rule, the concentration that inhibits the measured activity by half) against hERG potassium channel came to 1000 ± 112 nM; against SERT [5] ([3H]5-HT uptake, antagonist assay), 20.1 nM. Also, the LD50 (in general, the dose expected to kill half of the subjects tested) at 24 h in data set [3] came out at 512 mg/kg. The “Activation (10 μM, %) SERT” value at SERT [5] (10 μM, n = 3) worked out at 4.4 ± 0.3%. Moreover, the inhibition (in general, the drop in the measured response relative to a control, in per cent) at 10 µM against SERT [5] (10 μM, n = 3) was more than 90%. Besides, at SERT [6] (ratio of binding Ki values for SERT, NET, H3), the “potency ratio among SERT, NET, and H3” value is on record as less than 10 fold.
